Laboratory results taken from the NIST ThermoML archive (doi:10.1016/j.jct.2010.04.013).

Assay: mn = molality of the nth substance listed, in mol/kg
Details: 101 kPa, Liquid; for mass density: Vibrating tube method; for speed of sound: Pulse-echo method

O=S(=O)([O-])C(F)(F)F.O=S(=O)([O-])C(F)(F)F.[Be+2] [beryllium 1,1,1-trifluoromethanesulfonate] + C[S+](C)[O-]
Details | mass density, 293.15 K [kg/m3] | mass density, 298.15 K [kg/m3] | mass density, 303.15 K [kg/m3] | mass density, 313.15 K [kg/m3] | mass density, 323.15 K [kg/m3] | mass density, 333.15 K [kg/m3] | speed of sound, 298.15 K [m/s]
m1 = 0.01855 | 1103.22 | 1098.21 | 1093.19 | 1083.18 | 1073.16 | 1063.14 | –
m1 = 0.0259 | 1104.42 | 1099.41 | 1094.4 | 1084.39 | 1074.38 | 1064.37 | 1484.1
m1 = 0.03349 | 1105.65 | 1100.64 | 1095.64 | 1085.64 | 1075.64 | 1065.64 | 1484.1
m1 = 0.0433 | 1107.25 | 1102.25 | 1097.25 | 1087.27 | 1077.27 | 1067.29 | 1484.1
m1 = 0.0531 | 1108.84 | 1103.84 | 1098.85 | 1088.88 | 1078.9 | 1068.92 | 1484.1
m1 = 0.06815 | 1111.3 | 1106.31 | 1101.33 | 1091.37 | 1081.41 | 1071.46 | 1484.1
m1 = 0.08651 | 1114.3 | 1109.32 | 1104.35 | 1094.41 | 1084.48 | 1074.55 | 1484.1
m1 = 0.1051 | 1117.36 | 1112.4 | 1107.44 | 1097.52 | 1087.61 | 1077.69 | 1484.1
m1 = 0.1237 | 1120.43 | 1115.48 | 1110.52 | 1100.63 | 1090.75 | 1080.86 | 1484.1
m1 = 0.1446 | 1123.89 | 1118.95 | 1114.01 | 1104.14 | 1094.27 | 1084.41 | 1484.1
m1 = 0.1621 | 1126.82 | 1121.88 | 1116.95 | 1107.09 | 1097.24 | 1087.39 | 1484.1

[Ca+2].[O-][Cl+3]([O-])([O-])[O-].[O-][Cl+3]([O-])([O-])[O-] [calcium diperchlorate] + CO
Details | mass density, 283.15 K [kg/m3] | mass density, 288.15 K [kg/m3] | mass density, 293.15 K [kg/m3] | mass density, 298.15 K [kg/m3] | mass density, 303.15 K [kg/m3] | mass density, 308.15 K [kg/m3] | mass density, 313.15 K [kg/m3] | speed of sound, 298.15 K [m/s]
m1 = 0.04342 | 808.441 | 803.768 | 799.077 | 794.369 | 789.647 | 784.898 | 780.124 | 1107.2
m1 = 0.05807 | 811.094 | 806.419 | 801.722 | 797.014 | 792.292 | 787.544 | 782.768 | –
m1 = 0.07009 | 813.264 | 808.591 | 803.899 | 799.189 | 794.463 | 789.714 | 784.937 | 1110.9
m1 = 0.08408 | 815.804 | 811.129 | 806.432 | 801.724 | 796.994 | 792.241 | 787.454 | 1112.6
m1 = 0.09795 | 818.319 | 813.643 | 808.941 | 804.234 | 799.508 | 794.756 | 789.975 | 1114.4
m1 = 0.1113 | 820.755 | 816.078 | 811.379 | 806.668 | 801.938 | 797.181 | 792.393 | 1116.1
m1 = 0.1396 | 825.906 | 821.224 | 816.525 | 811.81 | 807.078 | 802.323 | 797.541 | 1119.6
m1 = 0.1663 | 830.829 | 826.145 | 821.443 | 816.722 | 811.986 | 807.224 | 802.43 | 1123
m1 = 0.1921 | 835.646 | 830.963 | 826.254 | 821.535 | 816.796 | 812.035 | 807.248 | 1126.7
m1 = 0.2177 | 840.443 | 835.754 | 831.044 | 826.321 | 821.577 | 816.812 | 812.023 | 1129.5
m1 = 0.2427 | 845.09 | 840.401 | 835.687 | 830.964 | 826.212 | 821.445 | 816.651 | 1132.9
m1 = 0.269 | 850.052 | 845.358 | 840.641 | 835.911 | 831.162 | 826.391 | 821.596 | 1136.3

[Ca+2].[O-][Cl+3]([O-])([O-])[O-].[O-][Cl+3]([O-])([O-])[O-] [calcium diperchlorate] + C[S+](C)[O-]
Details | mass density, 293.15 K [kg/m3] | mass density, 298.15 K [kg/m3] | mass density, 303.15 K [kg/m3] | mass density, 313.15 K [kg/m3] | mass density, 323.15 K [kg/m3] | mass density, 333.15 K [kg/m3] | speed of sound, 298.15 K [m/s]
m1 = 0.01996 | 1103.64 | 1098.63 | 1093.62 | 1083.61 | 1073.6 | 1063.59 | –
m1 = 0.02505 | 1104.52 | 1099.51 | 1094.5 | 1084.5 | 1074.49 | 1064.5 | –
m1 = 0.03085 | 1105.52 | 1100.51 | 1095.51 | 1085.52 | 1075.52 | 1065.54 | 1486.8
m1 = 0.03807 | 1106.77 | 1101.77 | 1096.77 | 1086.78 | 1076.8 | 1066.82 | 1487.3
m1 = 0.0488 | 1108.62 | 1103.63 | 1098.64 | 1088.67 | 1078.7 | 1068.74 | 1488.2
m1 = 0.06089 | 1110.72 | 1105.73 | 1100.74 | 1090.8 | 1080.86 | 1070.91 | 1489.3
m1 = 0.07827 | 1113.74 | 1108.77 | 1103.81 | 1093.88 | 1083.96 | 1074.05 | 1490.8
m1 = 0.1006 | 1117.66 | 1112.7 | 1107.75 | 1097.85 | 1087.97 | 1078.08 | 1492.6
m1 = 0.1214 | 1121.33 | 1116.39 | 1111.45 | 1101.58 | 1091.73 | 1081.88 | 1494.5
m1 = 0.1417 | 1124.92 | 1119.99 | 1115.06 | 1105.22 | 1095.39 | 1085.57 | 1496.2
m1 = 0.1651 | 1129.07 | 1124.16 | 1119.25 | 1109.44 | 1099.65 | 1089.87 | 1498.2
m1 = 0.1858 | 1132.79 | 1127.88 | 1122.99 | 1113.2 | 1103.45 | 1093.69 | 1500.1

C[S+](C)[O-] [dimethyl sulfoxide] + O=S(=O)([O-])C(F)(F)F.O=S(=O)([O-])C(F)(F)F.[Be+2]
m2 = 0
Details | mass density [kg/m3]
293.15 K | 1100.21
298.15 K | 1095.18
303.15 K | 1090.16
313.15 K | 1080.11
323.15 K | 1070.07
333.15 K | 1060.03

C[S+](C)[O-] [dimethyl sulfoxide] + O=S(=O)([O-])C(F)(F)F.[Na+]
m2 = 0
Details | mass density [kg/m3]
293.15 K | 1100.21
298.15 K | 1095.18
303.15 K | 1090.16
313.15 K | 1080.11
323.15 K | 1090.07
333.15 K | 1080.03

C[S+](C)[O-] [dimethyl sulfoxide] + [Ba+2].[O-][Cl+3]([O-])([O-])[O-].[O-][Cl+3]([O-])([O-])[O-]
m2 = 0
Details | mass density [kg/m3]
293.15 K | 1100.21
298.15 K | 1095.18
303.15 K | 1090.16
313.15 K | 1080.12
323.15 K | 1070.08
333.15 K | 1060.02

C[S+](C)[O-] [dimethyl sulfoxide] + [Ca+2].[O-][Cl+3]([O-])([O-])[O-].[O-][Cl+3]([O-])([O-])[O-]
m2 = 0
Details | mass density [kg/m3]
293.15 K | 1100.21
298.15 K | 1095.18
303.15 K | 1090.16
313.15 K | 1080.12
323.15 K | 1070.08
333.15 K | 1060.02

C[S+](C)[O-] [dimethyl sulfoxide] + [Mg+2].[O-][Cl+3]([O-])([O-])[O-].[O-][Cl+3]([O-])([O-])[O-]
m2 = 0
Details | mass density [kg/m3]
293.15 K | 1100.21
298.15 K | 1095.18
303.15 K | 1090.16
313.15 K | 1080.12
323.15 K | 1070.08
333.15 K | 1060.02

C[S+](C)[O-] [dimethyl sulfoxide] + [O-][Cl+3]([O-])([O-])[O-].[O-][Cl+3]([O-])([O-])[O-].[Sr+2]
m2 = 0
Details | mass density [kg/m3]
293.15 K | 1100.22
298.15 K | 1095.18
303.15 K | 1090.17
313.15 K | 1080.12
323.15 K | 1070.08
333.15 K | 1060.03
